Measured values reported in PMC10855902 (International Journal of Molecular Sciences, 2024).
Like-named read-outs stand apart in the source and are kept apart here. Ends that are not written are not given here. Peptide text beside a SMILES is read from it.

How the values were obtained:
[1] = system: Primary Dermal Fibroblasts; test: Live/dead test (proliferation and cytotoxicity); type: cell-based; conditions: 100 ng/mL; for percentage of live cells (in words) / live cells: live/dead assay
Experimental: In the next stage of our research, the scope of biological tests was expanded to assess the safety of the found EGF fragments. Fragments 10–22, 13–19, 22–28, 26–34, 10–15, and 10–15a were selected for further study in a live/dead assay (Figure 7, Figure 8 and Figure 9).
Primary Dermal Fibroblast (ATCC, Manassas, USA) was grown in Fibroblast Basal Media supplemented with Fibroblast Growth Kit components (ATCC, Manassas, VA, USA). The cells were cultured under standard conditions (37 °C, humidified atmosphere of 5% CO2 in air). The medium was replaced every 2–3 days (75% confluence). Cells between the third and fifth passages were used in the experiment.
To evaluate proliferation and cytotoxicity, a “live/dead” test (Viability/Cytotoxicity Kit, Molecular Probes) was used. Cells were seeded at 6 × 10^4 cells/mL/well/sample in 2 mL of Fibroblast Basal Media supplemented with Fibroblast Growth Kit components (ATCC, Manassas, VA, USA). After 24 h, the medium was completely replaced. Cells in the positive control and negative control were cultured in medium containing FGF. In the remaining samples, media without FGF and with the addition of heat-inactivated serum were used. […] During the experiment, half of the medium was changed every 2 days. […] After that time, a mixture of two fluorescent dyes was used: Calcein-AM for the staining of living cells and ethidium bromide for the labeling of dead cells.
The samples were examined using an Olympus GX 71 fluorescence microscope equipped with a digital camera (DP70) (Olympus, Evident, Tokyo, Japan). The results were submitted to one-way ANOVA analysis.

[2] = target: Recombinant human EGFR protein (Active) (ab155639) (Homo sapiens, UniProt P00533); test: Microscale thermophoresis (MST) binding to EGFR
Experimental: It is known from the literature data that the dissociation constant of this binding interaction varies from 0.2 to 8 nM [102]. […] It is recommended that the concentration of the ligand should be at least 20× higher than the expected dissociation constant. In the experiments, the final labeled EGFR concentration was 25 nM.
MST analysis was performed using a Monolith NT.115 device, excitation color—Nano-RED, excitation power—100%, medium MST power.
Recombinant human EGFR protein (Active) (ab155639) was reconstituted with 500 μL of 0.45 μm filtered distilled water. Then, 100 nM solution of EGFR was prepared by mixing 3.6 μL of protein with 96.4 μL PBS-T (PBS with 0.05% Tween20). RED-tris-NTA 2nd Generation (5 μM) was obtained by dissolving […] of dye in 50 μL PBS-T. A solution of dye in PBS-T (50 nM) was prepared by mixing 1 μL of dye with 99 μL PBS-T. A solution of the protein (95 μL) was mixed with the solution of dye (95 μL) and incubated at room temperature for 30 min. The sample was then centrifuged for 10 min at 4 °C. The final labeled protein concentration in the assay was 25 nM.
Then, 20 μL of the ligand was transferred to PCR tube 1. Subsequently, 10 μL of the solution was transferred to PCR tube 2 and mixed by pipetting; 10 μL of the solution from PCR tube 2 was transferred to PCR tube 3 and mixed by pipetting; this procedure was repeated for PCR tubes 4–16. From PCR tube 16, 10 μL of the solution was discarded. Finally, 10 μL of labeled EGFR was added to each PCR tube and mixed by pipetting. The samples were incubated for 30 min at room temperature prior to MST assays. Analyses were performed using NanoTemper Technologies (München, Germany).

[3] = system: anti-EGF rabbit polyclonal antibodies (Abcam 9695); test: Dot blot of cellulose-immobilized EGF decapeptides with anti-EGF polyclonal antibodies; type: binding; conditions: for interaction with polyclonal anti-EGF antibodies (in words) / Intensity (ability to interact with polyclonal antibodies): peptide on cellulose matrix; for Intensity (ability to interact with polyclonal antibodies): antibody 1:1000, 1 h room temperature; for Intensity (Staining Value): scanned spot, 256 gray scale (ImageJ);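 on Intensity (Staining Value): higher gray value means stronger antibody binding with above 120 very strong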
Experimental: Dot blot reactions were performed using primary anti-EGF rabbit polyclonal antibodies (Abcam 9695) (Cambridge, UK) and secondary goat anti-rabbit antibodies conjugated with HRP (Abcam 205718). The procedure for using the dot blot method to analyze peptides immobilized on a cellulose matrix through a triazine linker was optimized in a previous study by the authors and ensures the elimination of non-specific impacts.
The solution was then removed, and the membranes were treated overnight at room temperature with blocking buffer (3% BSA in PBS, 40 mL, pH 7.4). The cellulose sheets were then washed with PBS buffer (40 mL, 5 min, pH 7.4). […] The membranes were then washed with Tween-80 solution in PBS (0.4%, 40 mL, 2 × 5 min) and PBS (40 mL, 5 min). Goat Anti-Rabbit IgG antibodies were conjugated with HRP (Abcam 205718, 20 μL) diluted 1:1000 in 1% BSA in PBS (20 mL, pH 7.4) and then incubated with cellulose sheets for 30 min at room temperature. The membranes were then washed with Tween-80 solution in PBS (0.4%, 40 mL, 2 × 5 min) and PBS (40 mL, 5 min). Visualization of the reactions was performed using 4-chloro-1-naphtol (Sigma–Aldrich). The cellulose sheets were placed into 0.15 mg/mL solution of 4-chloro-1-naphtol in MeOH:PBS (1:5, 15 mL) with the addition of 7.5 μL of H2O2; reaction time was 30 min. The membranes were washed with distilled water, air-dried, and scanned. In places where immunological complexes developed, blue precipitate was observed. The applied dot blot test procedure ensures the elimination of non-specific interactions. Additionally, using the same SPOT synthesis procedure, a library of type IV collagen fragments was obtained. […] The gray levels of the immunological reactions were determined using ImageJ Version 1.53n7 (https://imagej.nih.gov/ij/index.html, accessed on 17 October 2021) computer imaging software.

[4] = target: T1, Recombinant human EGFR protein (Active) (ab155639) (human, UniProt P00533 25-645, labelled with RED-tris-NTA 2nd Generation dye); test: MST; RED-tris-NTA-labelled EGFR 25 nM, ligand in a 16-step 1:1 dilution series in PBS-T, 30 min at room temperature; assay concentration of the ligand 500 μM; conditions: both partners purified
T1 construct: epidermal growth factor receptor (EGFR, ErbB-1), human, recombinant; also called EGF receptor; ErbB-1; source: bought: Abcam (ab155639), recombinant

[5] = target: T1, Recombinant human EGFR protein (Active) …; test: MST; RED-tris-NTA-labelled EGFR 25 nM, ligand in a 16-step 1:1 dilution series in PBS-T, 30 min at room temperature; assay concentration of the ligand 10 mM; conditions: both partners purified

For CSCC[C@H](NC(=O)[C@H](CS)NC(=O)[C@@H](NC(=O)CNC(=O)[C@H](CC(=O)O)NC(=O)[C@H](Cc1c[nH]cn1)NC(=O)[C@H](CC(C)C)NC(=O)[C@H](CS)NC(=O)[C@H](Cc1ccc(O)cc1)NC(=O)CNC(=O)[C@H](CC(=O)O)NC(=O)[C@@H](N)Cc1c[nH]cn1)C(C)C)C(=O)N[C@@H](Cc1ccc(O)cc1)C(=O)O [10–22] (H-HDGYCLHDGVCMY-OH; C-terminus assumed), the “percentage of live cells (in words)” value ([1]; after 1 day) was “slightly less survivability”, the live cells ([1]; after 7 days) was 99.25% and the live cells ([1]; after one day) was 97.13%. The “dissociation constants (range over the assay concentrations)” value ([2]; MST, range over the tested fragment concentrations, labeled EGFR 25 nM) was 0.07 to 416 µM.

Molecule CC[C@H](C)[C@H](N)C(=O)N[C@@H](CCC(=O)O)C(=O)N[C@@H](C)C(=O)N[C@@H](CC(C)C)C(=O)O [23–26] (H-IEAL-OH) has a Kd ([2]; MST, assay concentration 10 mM, labeled EGFR 25 nM, read-out: Kd) of 5090 µM.

In the case of CC(C)C[C@H](N)C(=O)N[C@@H](CC(=O)O)C(=O)N[C@@H](CCCCN)C(=O)N[C@@H](Cc1ccc(O)cc1)C(=O)N[C@@H](C)C(=O)N[C@@H](CS)C(=O)N[C@@H](CC(N)=O)C(=O)N[C@@H](CS)C(=O)N[C@H](C(=O)O)C(C)C [26–34] (H-LDKYACNCV-OH), the “number of cells (fibroblast proliferation, in words)” value ([1]; after 1 day of incubation) is reported as “more cells than in the medium with EGF”, the “percentage of live cells (in words)” value ([1]; after 1 day) is reported as “one of the highest percentages of live cells” and the “percentage of live cells (in words)” value ([1]; after 7 days) is reported as “one of the highest percentages of live cells”.

In the case of “EGF: native EGF (ab9697), recombinant human EGF protein; 53-amino acid polypeptide”, the “number of cells (fibroblast proliferation, in words)” value ([1]; after 7 days of incubation) is reported as “induced cell growth”.

In the case of H-YCLHDGV-OH [13–19], the “percentage of live cells (in words)” value ([1]; after 1 day) is reported as “slightly less survivability”, the live cells ([1]; after 7 days) is reported as 99.30% and the live cells ([1]; after one day) is reported as 97.84%.

In the case of H-^39GERCQYRDLK^48-matrix [B19], the “interaction with polyclonal anti-EGF antibodies (in words)” value (from here on “interaction”) [3] is reported as “do not exhibit the ability to interact with antibodies”, the “Intensity (ability to interact with polyclonal antibodies)” value [3] is reported as “− ((−), where the color intensity value was <45)” and the “Intensity (Staining Value)” value [3] is reported as 28.9.

With H-^40ERCQYRDLKW^49-matrix [B20] the “interaction” value [3] was “do not exhibit the ability to interact with antibodies”.

For H-^41RCQYRDLKWW^50-matrix [C1], the “interaction” value [3] was “moderate binding to antibodies”, the “Intensity (ability to interact with polyclonal antibodies)” value [3] was “+ (strong (+), for which the staining intensity value was in the range of 120–90)” and the “Intensity (Staining Value)” value [3] was 91.5.

For H-^42CQYRDLKWWE^51-matrix [C2], the “interaction” value [3] was “moderate binding to antibodies”, the “Intensity (ability to interact with polyclonal antibodies)” value [3] was “+ (strong (+), for which the staining intensity value was in the range of 120–90)” and the “Intensity (Staining Value)” value [3] was 91.4.

In the case of H-^43QYRDLKWWEL^52-matrix [C3], the “interaction” value [3] is reported as “show interactions with polyclonal anti-EGF antibodies”, the “Intensity (ability to interact with polyclonal antibodies)” value [3] is reported as “+ (strong (+), for which the staining intensity value was in the range of 120–90)” and the “Intensity (Staining Value)” value [3] is reported as 99.4.

With H-^44YRDLKWWELR^53-matrix [C4] the “interaction” value [3] was “show interactions with polyclonal anti-EGF antibodies”, the “Intensity (ability to interact with polyclonal antibodies)” value [3] was “+ (strong (+), for which the staining intensity value was in the range of 120–90)” and the “Intensity (Staining Value)” value [3] was 104.2.

In the case of HDGYCL [10–15], the live cells ([1]; after 7 days) is reported as 99.52% and the live cells ([1]; after one day) is reported as 98.73%.

IGERCQ [38–43] was tested, and the Kd ([2]; MST, range over the tested fragment concentrations, labeled EGFR 25 nM, read-out: Kd (range over the assay concentrations)) was 0.108 to 0.709 µM.

QYRDL [43–47] was tested, and the “percentage of live cells (in words)” value ([1]; after 7 days) was “highest live percentage of cells for all tested peptides” and the Kd [2] was 4.93 to 125 µM.

Molecule VVGYIGERCQYRDL [34–47] has a Kd ([2]; MST, range over the tested fragment concentrations, labeled EGFR 25 nM, read-out: dissociation constants (range over the assay concentrations)) of 0.5 to 5.92 µM.

YIEALDK [22–28] was tested, and the “percentage of live cells (in words)” value ([1]; after 1 day) was “slightly less survivability”.

B1: EGF fragment 43–47 (QYRDL) (peptide)
peptide: QYRDL
notes: EGF, human, residues 43-47; numbers count on: the mature protein; source: synthetic peptide (SPPS, Fmoc; crude, without preparative HPLC)
Molecule B1 has a Kd [4] of 4.93 µM and a Kd [5] of 125 µM.
